Literature values in patent US7147875B2, “Method and composition for relieving symptoms of arthritis and gout using fruit of miracles” (priority 2004, dated 2006).

For COc1cc2c(c(OC)c1OC)-c1ccc(OC)c(=O)cc1[C@@H](NC(C)=O)CC2 [colchicine], the “Time until the pain is completely relieved” value (from starting treatment) is listed as 48 h, the “Time until the pain subsides” value (from starting treatment) is listed as ≤ 12 h and the “Reducing pain, swelling and inflammation associated with acute gout attacks” value (in vivo) is listed as “effective”. For the same compound, the “Uric acid levels in the bloodstream” value (in vivo) was “does not decrease”.
